Measured values from US20260207637A1, “MODULATOR FOR PROMOTING BINDING OF BUTYROPHILIN 3A1/2A1” (priority 2023, published 2026).
Like-named read-outs stand apart in the source and are kept apart here.

How the values were obtained:
Huh7/FG2 cells = assay: EC50 assay of small molecule activated γδ T cells to kill Huh7/FG2 tumor cells; type: cell-based; settings: γδT cells + Huh7/FG2, E:T=5:1, co-culture 20 hours, 0.05-100 nM, read-out: Huh7 killing (EC50)
Experimental: (§1) γδT cells and Huh7/FG2 tumor cell lines were expanded and cultured in vitro. The Huh7/FG2 cells were digested, and the cells were counted and resuspended in DMEM complete medium, the density of the cell suspension was adjusted and added into a 96-well plate at 5×10^3 cells/100 μL/well for overnight incubation. On the next day, the test compound and the control compound were diluted at a 3-fold ratio with DMSO, and 4 μL of the diluted compound was added to 96 μL of culture medium for 25-fold dilution. 5 μL of 25-fold diluted compound was transferred to the corresponding well which had been plated with tumor cells, and the actual detection concentration was in the range of 0.05-100 nM. γδT cells were resuspended in γδT complete medium, and the density of the cell suspension was adjusted according to the effector-target ratio of E:T=5:1, and then the cell was added to the corresponding well at 2.5×10^4 cells/100 μL/well. After co-culture at 37° C., 5% CO2 for 20 hours, the cells were centrifuged. […] After standing for 18 minutes in the dark, the signal of chemiluminescence was detected. The EC50 value was calculated by four-parameter fitting, with the corresponding signal value of the well with only tumor cells as the minimum killing value, and the corresponding value of the well without tumor cells as the maximum killing value.

SKOV3/ELP cells = assay: EC50 assay of small molecule activated γδ T cells to kill SKOV3/ELP tumor cells; type: cell-based; settings: γδT cells + SKOV3/ELP, E:T=2:1, co-culture 20 hours, 0.05-100 nM, read-out: SKOV3 killing (EC50)
Experimental: as §1, with “cells and SKOV3/ELP tumor cell” for “cells and Huh7/FG2 tumor cell”, “vitro. The SKOV3/ELP cells were” for “vitro. The Huh7/FG2 cells were”, “resuspended in MC5A complete medium,” for “resuspended in DMEM complete medium,”, “5×10^3 cells/100 […]/well for overnight” for “5×10^3 cells/100 μL/well for overnight”, “ratio of E:T=2:1, and then” for “ratio of E:T=5:1, and then”, “well at 1×10^4 cells/100 μL/well.” for “well at 2.5×10^4 cells/100 μL/well.”

MV4-11-luc cells = assay: EC50 assay of small molecule activated γδ T cells to kill MV4-11-luc tumor cells; type: cell-based; settings: γδT cells + MV4-11-luc, E:T=2:1, co-culture 20 hours, 0.05-100 nM, read-out: MV4-11 killing (EC50)
Experimental: as §1, with “MV4-11-luc” for “Huh7/FG2”, “IMDM” for “DMEM”, “E:T=2:1,” for “E:T=5:1,”, “1×10^4” for “2.5×10^4”

[1] = Stability experiment of compounds in human whole blood; type: in vitro ADME; settings: 37° C., 0-4 h
Experimental: • (1) An appropriate amount of blank whole blood was added into an EP tube containing sodium heparin, then added the working solution of the test substance to a final concentration of 1 μM, and mixed by vortex; • (2) The sample was placed in a water bath at 37° C. with two parallel experiments; for one experiment, the time points were 0 h, 0.5 h, 1 h, 2 h, and 4 h; another experiment was performed to obtain the absolute zero point, which was compared with the 0 h point. • (3) An appropriate amount of sample was taken out from the incubation system, to which 300 μL of internal standard precipitant was added for protein precipitation; (4) all samples were centrifuged at 6° C. for 10 min (15700×g). • (5) 150 μL of the supernatant was taken out, to which 150 μL of water was added, which was mixed by vortex, and analyzed by LC-MS/MS. The stability data of compounds in human whole blood is as follows: […]

SMILES | EC50 (Huh7/FG2 cells) [nM] | EC50 (SKOV3/ELP cells) [nM] | EC50 (MV4-11-luc cells) [nM] | T1/2 in human whole blood ([1]; 1 μM) [h] | EC50 (Huh7/FG2 cells; Homo sapiens, Huh-7) [nM] | EC50 (SKOV3/ELP cells; Homo sapiens, SK-OV-3) [nM] | EC50 (MV4-11-luc cells; Homo sapiens) [nM] | half-life at 1 μM ([1]; whole blood (sodium heparin), read-out: T1/2 in human whole blood (converted)) [h]
C/C(=C\CC[P@@](=O)(N[C@@H](C)C(=O)O[C@@H]1CCOC1)Oc1ccccc1)CO [Compound 19, (R)-tetrahydrofuran-3-yl ((S)-((R)-5-hydroxy-4-methylpent-3-en-1-yl)(phenoxy)phosphoryl)-L-alaninate] | 0.42 | 0.47 | 0.004 | >8 | – | – | – | –
C/C(=C\CCP(=O)(N[C@@H](C)C(=O)OC(C)C)Oc1ccccc1)CO (stereo partly drawn) [Control compound 1, Isopropyl (((E)-5-hydroxy-4-methylpent-3-en-1-yl)(phenoxy)phosphoryl)-L-alaninate, reference compound] | – | – | – | – | 1.68 | 1.14 | 0.05 | > 8
